Assay results published in US20090093501A1, “Heterocyclic antiviral compounds” (Roche Palo Alto LLC, priority 2007, published 2009).

Legend:
CCR5 = molecular target: T1, CCR5 (Homo sapiens, UniProt P51681); assay: CCR5-mediated cell-cell fusion (CCF) assay; format: cell-based; settings: Hela-R5 cells co-cultured with CEM-NKr-CCR5-Luc cells, 24 hrs, luciferase readout
T1 construct: host or cells: CEM-NKr-CCR5-Luc cells, co-cultured with Hela-R5 cells expressing gp160 and HIV-1 Tat
Procedure: CCF assay was performed as described before (C. Ji, J. Zhang, N. Cammack and S. Sankuratri, J. Biomol. Screen. 2006 11(6):652-663). Hela-R5 cells (express gp160 from R5-tropic virus and HIV-1 Tat) were plated in 384 well white culture plates (BD Bioscience, Palo Alto, Calif.) at 7.5×10^3 cells per well in phenol red-free Dulbecco's Modified Eagle Medium (DMEM) supplemented with 10% FBS, 1× Pen-Strep, 300 μg/mL G418, 100 μg/mL hygromycin, and 1 μg/mL Doxycycline (Dox) (BD Bioscience, Palo Alto, Calif.), using Multimek (Beckman, Fullerton, Calif.) and incubated at 37° C. overnight to induce the expression of gp160. Ten μL diluted compounds in medium containing 5% DMSO were added to the cells, followed by the addition of CEM-NKr-CCR5-Luc (obtained from NIH AIDS Research & Reference Reagents Program) that expresses CD4 and CCR5 and carries a […] long terminal repeat (LTR)-driven luciferase reporter gene at 1.5×10^4 cells/15 μL/well and incubated for 24 hrs. At the end of co-culture, 15 μL of Steady-Glo luciferase substrate was added into each well, and the cultures were sealed and gently shaken for 45 min. The luciferase activity were measured for 10 sec per well as luminescence by using 16-channel TopCount NXT (PerkinElmer, Shelton, Conn.) with 10 min dark adaptation and the readout is count per second (CPS). For the drug interaction experiments, small molecule compounds or antibodies were serially diluted in serum-free and phenol red-free RPMI containing 5% DMSO (CalBiochem, La Jolla, Calif.) and 1× Pen-Strep5 μL each of the two diluted compound or mAb to be tested for drug-drug interactions were added to the Hela-R5 cells right before the addition of target cells. Representative results are compiled in TABLE II

T1 sequence (P51681 whole entry, the tested form may be a part): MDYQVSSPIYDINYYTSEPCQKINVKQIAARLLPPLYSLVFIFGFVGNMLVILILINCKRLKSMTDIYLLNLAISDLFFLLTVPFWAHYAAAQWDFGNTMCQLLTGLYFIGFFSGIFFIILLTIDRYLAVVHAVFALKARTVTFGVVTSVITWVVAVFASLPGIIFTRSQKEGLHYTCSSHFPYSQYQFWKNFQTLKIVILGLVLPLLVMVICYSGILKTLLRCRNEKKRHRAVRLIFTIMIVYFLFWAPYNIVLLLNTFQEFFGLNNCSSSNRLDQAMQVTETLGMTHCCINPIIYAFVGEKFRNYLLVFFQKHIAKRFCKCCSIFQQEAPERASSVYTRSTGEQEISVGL

Row | IC50 (CCR5) [nM] | melting point [°C] | SMILES
1 | 9.5 |  | CCCCC1C(=O)N(CC2CCOCC2)CCC12CCN(C1(C)CCN(C(=O)c3c(C)ncnc3C)CC1)CC2 (stereo not shown) [I-3, 1-Butyl-9-[1-(4,6-dimethyl-pyrimidine-5-carbonyl)-4-methyl-piperidin-4-yl]-3-(tetrahydro-pyran-4-ylmethyl)-3,9-diaza-spiro[5.5]undecan-2-one]
2 | 7.8 |  | CCCCC1C(=O)N(CC2CCN(C(=O)OC)CC2)CCC12CCN(C1(C)CCN(C(=O)c3c(C)ncnc3C)CC1)CC2 (stereo not shown) [I-19, 4-{1-Butyl-9-[1-(4,6-dimethyl-pyrimidine-5-carbonyl)-4-methyl-piperidin-4-yl]-2-oxo-3,9-diaza-spiro[5.5]undec-3-ylmethyl}-piperidine-1-carboxylic acid methyl ester]
3 | 9.8 | 113 to 120 | CCCCC1CN(S(=O)(=O)C2CCN(C(C)=O)CC2)CCC12CCN(C1(C)CCN(C(=O)c3c(C)ncnc3C)CC1)CC2 (stereo not shown) [I-25]
